The results in this text go back to patent US8921376B2, “Pyrrolopyridines useful as inhibitors of protein kinase” (Vertex Pharmaceuticals Incorporated, priority 2005, dated 2014).

Common to all, as to type: biochemical
Assay [1] has as its target ROCK I (Homo sapiens, UniProt Q13464). Kind of assay: ROCK-I inhibition assay (radioactive enzyme assay, MBP substrate). A digest of the protocol: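 Human ROCK at 5 nM phosphorylated 27 μM myelin basic protein with 13 μM [γ-33P]ATP (final) in HEPES pH 7.5, MgCl2, NaCl, DTT and 1.5% DMSO. Reactions ran 2 h at room temperature before TCA quench and filter-plate scintillation counting. After background subtraction, data were fit to give Ki(app).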

The target in assay [2] is JAK2 (Homo sapiens, UniProt O60674). Briefly: JAK2 inhibition assay (as Example 3 with JAK-2 enzyme). A digest of the protocol:
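In HEPES pH 7.4 buffer with 10 mM MgCl2, 1 mM DTT, 25 mM NaCl and 0.01% BSA, JAK2 enzyme phosphorylated poly(Glu)4Tyr (final 15 μM) using 33P-ATP (final 12 μM) for 20 min at room temperature (25 °C). Reactions stopped with TCA; incorporated 33P measured by scintillation after filtration.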

The target of assay [3] is T1, JAK3 (Homo sapiens, UniProt P52333).
T1 sequence (P52333 1-1124): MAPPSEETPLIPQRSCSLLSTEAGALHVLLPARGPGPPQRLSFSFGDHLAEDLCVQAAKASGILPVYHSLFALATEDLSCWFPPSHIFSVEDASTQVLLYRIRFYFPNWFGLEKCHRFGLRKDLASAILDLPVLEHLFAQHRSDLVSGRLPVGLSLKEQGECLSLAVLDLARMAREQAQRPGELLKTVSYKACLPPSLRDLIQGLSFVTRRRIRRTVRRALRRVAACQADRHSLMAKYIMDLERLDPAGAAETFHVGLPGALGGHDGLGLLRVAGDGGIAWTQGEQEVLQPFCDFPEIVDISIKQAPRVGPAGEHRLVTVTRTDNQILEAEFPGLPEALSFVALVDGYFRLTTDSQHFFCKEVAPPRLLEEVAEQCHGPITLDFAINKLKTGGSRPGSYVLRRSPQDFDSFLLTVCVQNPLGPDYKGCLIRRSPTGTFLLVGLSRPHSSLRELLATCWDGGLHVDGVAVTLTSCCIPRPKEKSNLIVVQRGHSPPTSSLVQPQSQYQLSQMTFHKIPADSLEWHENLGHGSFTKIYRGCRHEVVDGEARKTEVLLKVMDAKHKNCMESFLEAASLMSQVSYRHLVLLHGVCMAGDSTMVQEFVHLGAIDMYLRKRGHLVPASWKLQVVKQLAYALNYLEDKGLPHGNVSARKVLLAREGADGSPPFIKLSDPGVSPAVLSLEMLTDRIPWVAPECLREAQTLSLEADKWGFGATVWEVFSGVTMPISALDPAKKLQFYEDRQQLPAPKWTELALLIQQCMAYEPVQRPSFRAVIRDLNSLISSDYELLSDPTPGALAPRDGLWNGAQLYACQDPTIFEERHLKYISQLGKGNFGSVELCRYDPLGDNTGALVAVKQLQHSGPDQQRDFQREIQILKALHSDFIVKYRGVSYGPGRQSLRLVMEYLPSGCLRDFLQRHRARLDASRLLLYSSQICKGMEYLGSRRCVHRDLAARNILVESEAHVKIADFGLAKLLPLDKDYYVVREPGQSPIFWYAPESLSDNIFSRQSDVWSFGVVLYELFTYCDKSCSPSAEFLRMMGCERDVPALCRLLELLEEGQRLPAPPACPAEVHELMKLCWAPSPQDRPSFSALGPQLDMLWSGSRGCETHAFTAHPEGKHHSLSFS
Kind of assay: JAK3 inhibition assay (33P incorporation into poly(Glu)4Tyr). A digest of the protocol:
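After TCA quench and filter harvest, scintillation counting of 33P measured phosphorylation of poly(Glu)4Tyr (1 μM) by 1 nM JAK3. The 20-min, 25° C. reaction contained 5 μM ATP (200 μCi/μmole) in pH 7.4 HEPES buffer with 10 mM MgCl2.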

Setting [4] is: Table 6, enzyme inhibition data (Ki).
Setting [5] is: enzyme inhibition, Ki(app), Table 5.

pKi: −log10 of the molar value. Some results are limits rather than exact numbers.

Sequence of JAK2 (O60674 whole entry): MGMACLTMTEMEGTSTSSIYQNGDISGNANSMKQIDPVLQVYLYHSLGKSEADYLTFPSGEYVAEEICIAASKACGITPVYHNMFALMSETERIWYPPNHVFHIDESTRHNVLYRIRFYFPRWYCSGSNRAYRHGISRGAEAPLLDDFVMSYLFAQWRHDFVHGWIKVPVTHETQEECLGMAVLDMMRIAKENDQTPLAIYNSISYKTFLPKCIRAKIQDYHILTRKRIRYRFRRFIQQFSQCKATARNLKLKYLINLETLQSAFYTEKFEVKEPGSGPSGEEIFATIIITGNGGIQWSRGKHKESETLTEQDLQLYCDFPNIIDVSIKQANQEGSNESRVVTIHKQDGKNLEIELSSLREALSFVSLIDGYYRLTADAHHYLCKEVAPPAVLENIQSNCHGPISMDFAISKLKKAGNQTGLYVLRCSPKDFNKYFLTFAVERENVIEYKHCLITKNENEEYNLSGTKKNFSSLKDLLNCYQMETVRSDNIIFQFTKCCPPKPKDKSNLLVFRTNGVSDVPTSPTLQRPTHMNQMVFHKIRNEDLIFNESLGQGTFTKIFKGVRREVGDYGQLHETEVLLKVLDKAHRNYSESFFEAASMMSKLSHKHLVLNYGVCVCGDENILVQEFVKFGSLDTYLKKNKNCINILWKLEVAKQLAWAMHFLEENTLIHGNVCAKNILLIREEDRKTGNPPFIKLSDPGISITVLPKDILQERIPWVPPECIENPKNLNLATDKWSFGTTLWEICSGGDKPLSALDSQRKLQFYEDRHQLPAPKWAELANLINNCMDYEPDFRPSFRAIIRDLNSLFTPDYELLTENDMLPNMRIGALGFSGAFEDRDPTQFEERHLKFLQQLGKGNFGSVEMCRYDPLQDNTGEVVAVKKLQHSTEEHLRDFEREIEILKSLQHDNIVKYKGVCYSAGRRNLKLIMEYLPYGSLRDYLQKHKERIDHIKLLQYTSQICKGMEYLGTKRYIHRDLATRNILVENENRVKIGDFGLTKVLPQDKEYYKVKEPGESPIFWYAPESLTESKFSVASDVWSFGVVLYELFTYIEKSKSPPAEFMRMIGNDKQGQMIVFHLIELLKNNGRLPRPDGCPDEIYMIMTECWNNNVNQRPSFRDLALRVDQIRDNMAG
Sequence of ROCK I (Q13464 whole entry): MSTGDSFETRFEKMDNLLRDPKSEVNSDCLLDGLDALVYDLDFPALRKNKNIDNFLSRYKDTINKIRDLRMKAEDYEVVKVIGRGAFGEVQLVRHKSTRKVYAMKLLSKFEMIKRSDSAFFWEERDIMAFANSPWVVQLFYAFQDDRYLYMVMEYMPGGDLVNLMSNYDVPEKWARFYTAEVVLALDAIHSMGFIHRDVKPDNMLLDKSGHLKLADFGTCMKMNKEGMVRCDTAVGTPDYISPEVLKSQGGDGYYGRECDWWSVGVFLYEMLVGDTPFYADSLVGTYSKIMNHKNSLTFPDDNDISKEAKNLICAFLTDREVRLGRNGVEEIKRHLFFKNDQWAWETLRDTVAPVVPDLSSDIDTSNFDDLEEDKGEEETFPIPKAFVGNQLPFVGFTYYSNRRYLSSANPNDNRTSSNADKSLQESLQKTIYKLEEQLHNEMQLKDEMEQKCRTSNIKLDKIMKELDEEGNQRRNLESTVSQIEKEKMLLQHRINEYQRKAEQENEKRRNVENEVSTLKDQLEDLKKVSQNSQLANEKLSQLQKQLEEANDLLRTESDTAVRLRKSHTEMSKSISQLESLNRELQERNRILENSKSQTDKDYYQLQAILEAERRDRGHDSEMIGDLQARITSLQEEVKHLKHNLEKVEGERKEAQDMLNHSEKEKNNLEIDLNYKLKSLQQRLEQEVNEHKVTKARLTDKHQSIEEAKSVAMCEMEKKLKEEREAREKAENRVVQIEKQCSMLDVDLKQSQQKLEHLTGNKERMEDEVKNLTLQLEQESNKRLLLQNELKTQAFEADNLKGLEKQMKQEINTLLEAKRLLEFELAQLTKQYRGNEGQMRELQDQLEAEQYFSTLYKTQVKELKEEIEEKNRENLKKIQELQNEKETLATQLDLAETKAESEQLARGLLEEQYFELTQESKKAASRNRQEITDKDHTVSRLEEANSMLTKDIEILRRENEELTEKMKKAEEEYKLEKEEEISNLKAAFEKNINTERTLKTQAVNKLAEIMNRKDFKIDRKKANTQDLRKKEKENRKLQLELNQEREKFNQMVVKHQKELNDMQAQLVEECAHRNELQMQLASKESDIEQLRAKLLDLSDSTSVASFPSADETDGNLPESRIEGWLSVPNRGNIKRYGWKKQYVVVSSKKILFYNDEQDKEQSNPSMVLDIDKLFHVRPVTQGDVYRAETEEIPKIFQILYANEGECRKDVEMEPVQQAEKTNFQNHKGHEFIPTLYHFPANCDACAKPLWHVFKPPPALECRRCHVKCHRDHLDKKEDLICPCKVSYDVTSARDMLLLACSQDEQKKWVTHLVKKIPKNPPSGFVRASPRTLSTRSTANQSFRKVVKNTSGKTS

For the compound `c1ccc(COc2ccccc2-c2ccnc3[nH]ccc23)cc1` [compound 225], the values for the pKi in assay [1] (setting [4]), in assay [2] (setting [4]) and in assay [3] (setting [4]) were less than 5.40, less than 5.30 and less than 5.30, respectively.
As to `Clc1cnc2[nH]ccc2c1-c1cccc(N2CCCC2)n1` [compound 79, 5-Chloro-4-(6-(pyrrolidin-1-yl)pyridine-2-yl)-1H-pyrrolo[2,3-b]pyridine], the pKi was 5.30 to 6.30 in assay [1] (setting [5]); 5.30 to 6.30 in assay [2] (enzyme inhibition, Table 5); 5.30 to 6.30 in assay [3] (enzyme inhibition, Table 5).
As to `O=C(c1cc(-c2c(Cl)cnc3[nH]ccc23)c[nH]1)N1CCC(CO)CC1` [compound 347], the figures for the pKi in assay [1] (setting [4]), in assay [2] (setting [4]) and in assay [3] (setting [4]) were 5.30 to 6.30, greater than 6.30 and greater than 6.30, respectively.
`CC(=O)N1CCCN(c2cccc(-c3c(Cl)cnc4[nH]ccc34)n2)CC1` [compound 76, 1-(4-(6-(5-Chloro-1H-pyrrolo[2,3-b]pyridin-4-yl)pyridin-2-yl)-1,4-diazepan-1-yl)ethanone]: the pKi in assay [1] (setting [5]) is 5.30 to 6.30; in assay [2] (enzyme inhibition, Table 5), greater than 6.30; in assay [3] (enzyme inhibition, Table 5) it was greater than 6.30.
Regarding `NC(=O)C1CCCN1C(=O)c1cc(-c2c(Cl)cnc3[nH]ccc23)c[nH]1` (stereo not drawn) [compound 352], the results for the pKi in assay [1] (setting [4]), in assay [2] (setting [4]) and in assay [3] (setting [4]) were less than 5.40, greater than 6.30 and greater than 6.30, respectively.
As to `C=CCN(CC=C)C(=O)c1cc(-c2c(Cl)cnc3[nH]ccc23)c[nH]1` [compound 330], the pKi is 5.30 to 6.30 in assay [1] (setting [4]), greater than 6.30 in assay [2] (setting [4]) and greater than 6.30 in assay [3] (setting [4]).
Consider `O=C(Nc1ccccc1)c1ccc(-c2ccnc3[nH]ccc23)cc1` [compound 271], for which the pKi in assay [1] (setting [4]), in assay [2] (setting [4]) and in assay [3] (setting [4]) was greater than 6.30 throughout.
For the compound `C#CCOC(=O)N1CCCC(Nc2c(Cl)cnc3[nH]ccc23)C1` (stereo not drawn) [compound 172], the figures for the pKi in assay [1] (setting [4]), in assay [2] (setting [4]) and in assay [3] (setting [4]) were 5.30 to 6.30, greater than 6.30 and greater than 6.30, respectively.
On to `C=CCN(CC=C)C(=O)c1cc(-c2c(F)cnc3[nH]ccc23)c[nH]1` [compound 383], for which the pKi is 5.30 to 6.30 in assay [1] (setting [4]), greater than 6.30 in assay [2] (setting [4]) and greater than 6.30 in assay [3] (setting [4]).
As for `CNc1ccccc1-c1ccnc2[nH]ccc12` [compound 381], the pKi in assay [1] (setting [4]) is less than 5.40; in assay [2] (setting [4]), 5.30 to 6.30; in assay [3] (setting [4]), 5.30 to 6.30.
On to `CCN(Cc1ccncc1)C(=O)c1cc(-c2ccnc3[nH]ccc23)c[nH]1` [compound 369], for which the pKi in assay [1] (setting [4]), in assay [2] (setting [4]) and in assay [3] (setting [4]) was greater than 6.30 throughout.
As for `CCN(CC)C(=O)c1cc(-c2ccnc3[nH]ccc23)c[nH]1` [compound 262], the pKi in assay [1] (setting [4]), in assay [2] (setting [4]) and in assay [3] (setting [4]) was greater than 6.30 in each case.
For the compound `CC(=O)Nc1cccc(-c2ccnc3[nH]ccc23)n1` [compound 98, N-(6-(1H-pyrrolo[2,3-b]pyridine-4-yl)pyridin-2-yl)acetamine], the pKi is 5.30 to 6.30 in assay [1] (setting [5]); greater than 6.30 in assay [2] (enzyme inhibition, Table 5); 5.30 to 6.30 in assay [3] (enzyme inhibition, Table 5).
Take `COCCN(CCOC)C(=O)c1cc(-c2c(Cl)cnc3[nH]ccc23)c[nH]1` [compound 339]: the pKi in assay [1] (setting [4]) is less than 5.40; in assay [2] (setting [4]), greater than 6.30; in assay [3] (setting [4]) it was greater than 6.30.
For the compound `Clc1cnc2[nH]ccc2c1-c1cccc(NC2CCCC2)n1` [compound 32, 6-(5-Chloro-1H-pyrrolo[2,3-b]pyridin-4-yl)-N-cyclopentylpyrdin-2-anine], the pKi in assay [1] (setting [5]) was 5.30 to 6.30; in assay [2] (enzyme inhibition, Table 5), 5.30 to 6.30; in assay [3] (enzyme inhibition, Table 5) it was less than 5.30.
For the compound `CCNC(=O)c1cc(-c2ccnc3[nH]ccc23)c[nH]1` [compound 282], the pKi in assay [1] (setting [4]), in assay [2] (setting [4]) and in assay [3] (setting [4]) was greater than 6.30 each time.
As for `O=C(c1csc(-c2ccnc3[nH]ccc23)n1)N(CC1CC1)CC(F)(F)F` [compound 406], the pKi in assay [1] (setting [4]), in assay [2] (setting [4]) and in assay [3] (setting [4]) was greater than 6.30 in each case.
Take `O=C(Cc1nc(-c2ccnc3[nH]ccc23)ncc1F)NCC(F)(F)F` [compound 266]: the pKi in assay [1] (setting [4]) was 5.30 to 6.30; in assay [2] (setting [4]) it was greater than 6.30; in assay [3] (setting [4]) it was 5.30 to 6.30.

Usually pKi stands for the negative decadic logarithm of the Ki, by convention in mol/L.
